Test results taken from the supplement of paper PMC10307832.

Columns and labels:
Experiment in all cases: relative viability (nuclei count vs DMSO), 5 days (fraction); higher = more cells survive
[1] = compound: CN1CCN(c2ccc3nc(-c4c(N)c5c(F)cccc5[nH]c4=O)[nH]c3c2)CC1 [Dovitinib] + CC1(C)CCC(c2ccc(Cl)cc2)=C(CN2CCN(c3ccc(C(=O)NS(=O)(=O)c4ccc(N[C@H](CCN5CCOCC5)CSc5ccccc5)c(S(=O)(=O)C(F)(F)F)c4)cc3)CC2)C1 [Navitoclax] (partner 0.5 µM)
Outline: (§1)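 Medians of duplicate plates are given as relative viability. That measure is the nuclei count in treated wells divided by the count in vehicle wells. Counts were taken on 4× images of lung cancer cell lines in 1536-well plates, 5 days after pin-tool dosing the day after seeding with one drug alone or a fixed anchor-drug dose plus five library-drug doses (not always all listed) in √10 steps.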

[2] = compound: CN1CCN(c2ccc3nc(-c4c(N)c5c(F)cccc5[nH]c4=O)[nH]c3c2)CC1 [Dovitinib] + C[C@@H](Oc1cc(-c2cnn(C3CCNCC3)c2)cnc1N)c1c(Cl)ccc(F)c1Cl [Crizotinib] (partner 1 µM)
Outline: as §1

[3] = compound: CN1CCN(c2ccc3nc(-c4c(N)c5c(F)cccc5[nH]c4=O)[nH]c3c2)CC1 [Dovitinib] + Cc1nc(Nc2ncc(C(=O)Nc3c(C)cccc3Cl)s2)cc(N2CCN(CCO)CC2)n1 [Dasatinib] (partner 0.075 µM)
Outline: as §1

[4] = compound: CN1CCN(c2ccc3nc(-c4c(N)c5c(F)cccc5[nH]c4=O)[nH]c3c2)CC1 [Dovitinib] + O=C(CCCCCCC(=O)Nc1ccccc1)NO [Vorinostat] (partner 1 µM)
Outline: as §1

Cell Line	relative viability ([1]; first compound 0.02 µM)	relative viability ([1]; first compound 0.06325 µM)	relative viability ([1]; first compound 0.2 µM)	relative viability ([1]; first compound 0.6325 µM)	relative viability ([1]; first compound 2 µM)	relative viability ([2]; first compound 0.02 µM)	relative viability ([2]; first compound 0.06325 µM)	relative viability ([2]; first compound 0.2 µM)	relative viability ([2]; first compound 0.6325 µM)	relative viability ([2]; first compound 2 µM)	relative viability ([3]; first compound 0.02 µM)	relative viability ([3]; first compound 0.06325 µM)	relative viability ([3]; first compound 0.2 µM)	relative viability ([3]; first compound 0.6325 µM)	relative viability ([3]; first compound 2 µM)	relative viability ([4]; first compound 0.02 µM)	relative viability ([4]; first compound 0.06325 µM)	relative viability ([4]; first compound 0.2 µM)	relative viability ([4]; first compound 0.6325 µM)	relative viability ([4]; first compound 2 µM)
H3255	0.627	0.532	0.569	0.559	0.582	0.898	0.903	0.854	0.929	0.871	0.405	0.374	0.424	0.445	0.369	0.684	0.886	0.862	0.778	0.711
EPLC-272H	1.05	0.993	1.24	1.49	0.97	0.799	0.994	0.981	1.09	0.972	0.351	0.346	0.36	0.37	0.31	0.564	0.522	0.434	0.402	0.367
PC-3 [JPC-3]	0.834	0.841	0.861	0.802	0.777	0.928	0.923	0.963	1.01	0.984	1.03	0.999	0.967	1	0.986	0.888	0.77	0.948	0.945	0.914
NCI-H1793	0.407	0.359	0.456	0.476	0.373						0.458	0.364	0.367	0.385	0.503	1.01	0.753	0.751	0.891	0.773
EKVX	0.923	0.989	1.1	0.989	0.883	0.937	0.975	1.08	0.988	0.906	0.517	0.662	0.588	0.61	0.611	0.799	0.776	0.836	0.75	0.739
ChaGo-K-1	1.01	0.976	0.975	1.14	1.18	1.03	1.08	1.09	1.11	1.15	0.632	0.559	0.603	0.595	0.526	0.739	0.814	0.758	0.766	0.706
NCI-H23	0.83	0.759	0.769	0.908	0.764	0.539	0.531	0.526	0.421	0.554	0.837	0.729	0.976	0.731	0.734	0.551	0.699	0.616	0.735	0.643
EMC-BAC-2	1.12	1.2	1.12	1.15	1.13	0.702	0.699	0.749	0.62	0.776	0.362	0.284	0.341	0.299	0.202	0.512	0.449	0.422	0.522	0.517
LOU-NH91	0.687	0.72	0.684	0.7	0.804	0.767	0.75	0.729	0.74	0.798	0.586	0.553	0.549	0.64	0.574	0.961	0.846	0.919	0.984	0.94
LU99A	0.78	0.787	0.747	0.774	0.727	0.548	0.597	0.601	0.561	0.547	0.508	0.448	0.572	0.517	0.46	0.456	0.555	0.46	0.615	0.624
NCI-H1395	1.26	1.53	1.26	1.01	1.21						0.448	0.423	0.437	0.402	0.425	0.678	0.622	0.787	0.811	0.924
NCI-H460	0.961	1.14	1.02	1.08	1.14	0.852	1.02	0.869	0.941	0.919	0.407	0.489	0.555	0.505	0.476	0.682	0.77	0.729	0.711	0.711
201T	1.12	1.21		1.22	1.21	1.03	0.935		0.992	1.01	0.571	0.565	0.581	0.566	0.538	0.862	0.957	0.908	0.947	0.949
NCI-H1944	1.01	0.995	1.02	1.08	1.1	1.02	1.13	1.05	1.08	1.18	0.214	0.21	0.208	0.212	0.228	0.502	0.702	0.646	0.583	0.64
NCI-H2405	0.897	0.836	0.86	0.807	1.32	0.87	0.762	0.862	0.773	0.935	0.201	0.222	0.174	0.204	0.235	0.99	0.961	1.07	1.06	1.17
NCI-H1703	1.18	1.41	0.84	0.775	0.33	0.651	0.836	0.779	0.547	0.31										
NCI-H1755	1.02	1	1.02	0.992	1.05	0.861	0.878	0.834	0.852	0.86	0.446	0.388	0.45	0.393	0.443	0.798	0.83	0.884	0.935	0.776
NCI-H2087	1.07	0.941	1.01	1.07	0.981	0.817	0.66	0.878	0.796	0.778	0.836	0.847	0.869	0.889	0.98	0.817	0.79	0.685	0.837	0.803
NCI-H2228	0.897	1.16	0.833	0.908	0.885	0.399	0.379	0.436	0.454	0.367	0.549	0.624	0.495	0.435	0.588	0.559	0.81	0.402	0.79	0.6

Cell Line	relative viability ([1]; first compound 0.02 µM)	relative viability ([1]; first compound 0.06325 µM)	relative viability ([1]; first compound 0.2 µM)	relative viability ([1]; first compound 0.6325 µM)	relative viability ([1]; first compound 2 µM)	relative viability ([2]; first compound 0.02 µM)	relative viability ([2]; first compound 0.06325 µM)	relative viability ([2]; first compound 0.2 µM)	relative viability ([2]; first compound 0.6325 µM)	relative viability ([2]; first compound 2 µM)	relative viability ([3]; first compound 0.02 µM)	relative viability ([3]; first compound 0.06325 µM)	relative viability ([3]; first compound 0.2 µM)	relative viability ([3]; first compound 0.6325 µM)	relative viability ([3]; first compound 2 µM)	relative viability ([4]; first compound 0.02 µM)	relative viability ([4]; first compound 0.06325 µM)	relative viability ([4]; first compound 0.2 µM)	relative viability ([4]; first compound 0.6325 µM)	relative viability ([4]; first compound 2 µM)
NCI-H727	0.497	0.491	0.421	0.468	0.414	0.42	0.757	0.657	0.877	0.813	0.482	0.393	0.422	0.395	0.385	1.19	1.12	1.25	1.39	1.25
NCI-H650						0.771	0.638	0.563	0.645	0.789	0.48	0.383	0.49	0.5	0.432	0.368	0.414	0.58	0.395	0.774
NCI-H520	1.17	1.21	1.09	1.03	0.905	0.746	0.724	0.782	0.781	0.798	0.165	0.188	0.235	0.179	0.218	0.765	0.698	0.62	0.656	0.643
EBC-1	0.475	0.38	0.421	0.384	0.55	0.177	0.212	0.193	0.162	0.208										
NCI-H661						0.915	0.863	0.928	0.942	0.891	0.85	0.829	1.01	0.984	0.936	0.733	0.837	0.826	0.938	0.843
NCI-H1299	1.01	1.04	1.09	1.05	1.08	0.941	0.968	0.915	0.942	1.01										
LK-2	0.995	0.896	0.876	0.766	0.767	0.216	0.215	0.275	0.223	0.281	0.282	0.242	0.281	0.325	0.396	0.262	0.403	0.373	0.373	0.364
NCI-H1993	1.07	0.963	0.965	1.02	0.934	0.917	0.818	0.811	1.04	0.942	0.748	0.634	0.599	0.684	0.261	0.929	0.754	0.823	0.76	0.943
NCI-H838	1.11	1.19	1.17	1.22	1.11	0.788	0.817	0.818	0.816	0.785	0.293	0.269	0.31	0.273	0.288	0.711	0.742	0.706	0.716	0.677
NCI-H1648																0.402	0.422	0.425	0.361	0.516
LCLC-103H						0.992	0.978	0.993	0.946	0.916	0.487	0.503	0.461	0.374	0.489	0.731	0.746	0.756	0.872	0.8
SW 900											0.741	0.586	0.548	0.546	0.61	0.699	0.402	0.518	0.616	0.493
IA-LM	0.778	0.961	0.814	0.704	0.76	0.678	0.838	0.73	0.722	0.682						0.962	0.883	1.13	0.973	0.897
NCI-H1563						0.829	0.855	0.839	0.838	0.814	0.478	0.475	0.469	0.507	0.509					
HCC-44	0.954	0.925	0.923	0.974	0.876	0.668	0.793	0.76	0.745	0.777						1.08	1.1	1.08	1.09	1.08
NCI-H358						0.569	0.566	0.507	0.459	0.793	0.154	0.177	0.176	0.184	0.179	0.673	0.808	0.738	0.619	0.639
ABC-1						1.54	1.19	1.22	1.2	1.08	0.479	0.55	0.474	0.618	0.61	1.14	1.12	1.07	1.18	1.18
NCI-H522											0.857	0.867	0.93	0.706	0.887	0.811	0.848	0.923	0.837	1.01
NCI-H1792	0.671	0.637	0.62	0.751	0.588	0.998	0.977	0.997	1.04	0.971	0.873	0.738	0.775	0.793	0.803					
